In patent US12391641B2, “Prostaglandin EP4 receptor antagonist compounds” (NXERA PHARMA UK LIMITED, priority 2019, dated 2025):

Target: T1, Human prostaglandin E2 receptor 4 (EP4) (Homo sapiens, UniProt P35408)
T1 construct: expressed in transfected cells; host or cells: HEK293 cells transduced with EP4 BacMam virus
Assay: cAMP Gs Functional Assay (HTRF cAMP dynamic-2), antagonism of PGE2
Assay type: cell-based
Settings: HEK293 cells transfected with EP4 BacMam virus; PGE2 challenge at EC80 (7 nM); pIC50 converted to functional pKb with a modified Cheng Prussoff equation; read-out: Human EP4 fpKb (converted)
Protocol: Cloning, Baculovirus generation, large scale infection of HEK293 cells and membrane preparation: Human prostaglandin E2 receptor 4 (EP4) was cloned into pBacMam expression vector (GeneScript, UK). Transposition of EP4 DNA was performed using Invitrogen's Bac-to-Bac Baculovirus Expression Systems. P0 baculovirus was generated by transfecting SF9 Cells with bacmid DNA using Cellfectin II transfection reagent (ThermoFisher Scientific, UK, catalog number 10362-100). Following P0 generation P1 virus was then generated ready for large scale infection and membrane preparation. HEK293 cells were grown in DMEM+Glutamax, supplemented with 10% heat inactivated fetal bovine serum (FBS). Cells were infected at a seeding density of 3.5 million cells/mL in 500 cm^3 flasks at 5% v/v EP4 Bacman. Expression was carried out over 36 hr period at 37° C. with 5% CO2. The cells were removed using PBS and a cell scrapper. The cell culture was centrifuged at 2500 RPM for 10 mins at 4° C. The supernatant was then poured off and the pellet stored at −80° C. The pellet was defrosted and re-suspended in 15 mL of homogenising buffer (20 mM HEPES, 10 mM EDTA, pH 7.4). Then homogenised in mechanical homogeniser (VMR) for 10 seconds. The membrane was centrifuged in centrifuge tubes at 40,000 g for 15 mins at 4° C. The supernatant was poured away and re-suspended in 15 mL of homogenising buffer. Homogenised for 20 seconds. The membrane was centrifuged at 40,000 g for 45 mins at 4° C. The membrane was re-suspended in 3 mL of storage buffer (20 mM HEPES, 0.1 mM EDTA, pH 7.4) mixing well. The resulting membranes were then stored at −80° C.
cAMP Gs Functional Assay: cAMP production following EP4 receptor activation was determined using the Homogeneous Time-Resolved Fluorescence (HTRF) cAMP dynamic-2 assay (Cisbio, France). HEK293 cells were transfected using a 0.5% EP4 Bacman virus for 36 hours, before dissociating the cells, and freezing at […].
On the day of testing, increasing concentration of test compounds, alongside positive controls (1 uM ONO-AE3-208) and negative control (DMSO (Sigma-Aldrich, UK) were added to a ProxiPlate-384 Plus, White 384-shallow well Mircoplate, (PerkinElmer, USA) using the ECHO dispense.
Cells were defrosted in a water bath and resuspended in DMEM supplemented with 10% FBS before centrifuging at 1200 RPM for 5 mins to form a pellet. The pellet was resuspended in assay buffer (DMEM+0.5 mM IBMX (Tocris, Abingdon, UK, Catalog Number 2845)) to a 1×10^6 cells/mL. Cell suspension, for a final assay concentration of 5000 cell/well was added using the multidrop to the pre-dispensed assay plate. The plate was then incubated at 37° C. for 30 mins, with 5% CO2. After incubation, EC80 concentration (7 nM) of PGE2 (EP4 agonist) was added to the plate. In parallel, a PGE2 dose-response curve was dispense to a separate plate. Assay buffer was then dispensed on top. The cAMP production was determined as manufacturer's instructions, before plates were read on a PheraStar fluorescence plate reader (BMG LabTech, Germany).
The pIC50 was converted to a functional pKb value using a modified Cheng Prussoff equation where Kd=agonist EC50 and Lhot=agonist challenge concentration;

T1 sequence (P35408 whole entry): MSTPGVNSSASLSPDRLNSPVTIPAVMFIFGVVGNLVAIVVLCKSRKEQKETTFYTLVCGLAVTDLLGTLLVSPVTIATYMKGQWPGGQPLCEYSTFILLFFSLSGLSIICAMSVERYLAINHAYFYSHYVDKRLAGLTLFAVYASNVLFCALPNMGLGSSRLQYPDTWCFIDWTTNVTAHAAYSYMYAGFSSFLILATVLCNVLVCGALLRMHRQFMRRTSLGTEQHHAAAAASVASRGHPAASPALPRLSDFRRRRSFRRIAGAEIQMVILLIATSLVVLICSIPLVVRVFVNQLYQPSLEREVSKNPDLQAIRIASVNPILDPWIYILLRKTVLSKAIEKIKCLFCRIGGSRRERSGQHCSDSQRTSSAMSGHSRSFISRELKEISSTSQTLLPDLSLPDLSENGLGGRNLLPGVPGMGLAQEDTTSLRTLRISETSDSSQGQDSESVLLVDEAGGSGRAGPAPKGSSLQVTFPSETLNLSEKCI

SMILES | Ki [nM]
O=C(O)c1ccc(C2(NC(=O)C(OCc3cccc(OC(F)F)c3)C3CCC3)CC2)cc1 (centres unmarked) [Example 99, 4-(1-(2-cyclobutyl-2-((3-(difluoromethoxy)benzyl)oxy)acetamido)cyclopropyl)benzoic acid] | 3.31
CC(O[C@@H](C(=O)N[C@@H](C)c1ccc(C(=O)O)cc1)C(C)C)c1ccc(C(F)(F)F)cc1 (mixture of isomers) [Example 51, 4-((1S)-1-((2R)-3-methyl-2-(1-(4-(trifluoromethyl)phenyl)ethoxy)butanamido)ethyl)benzoic acid] | 417
CC(C)[C@@H](OCc1ccc(C(F)(F)F)cc1)C(=O)NC1(c2ccc(C(=O)O)cc2)CC1 [Example 2, (R)-4-(1-(3-methyl-2-((4-(trifluoromethyl)benzyl)oxy)butanamido)cyclopropyl)benzoic acid] | 0.891
CC(C)[C@@H](OCc1ccc(C(F)F)cc1)C(=O)NC1(c2ccc(C(=O)O)cc2)CC1 [Example 62, (R)-4-(1-(2-((4-(difluoromethyl)benzyl)oxy)-3-methylbutanamido)cyclopropyl)benzoic acid] | 0.398
CC(C)[C@@H](OCc1ccnc(OC(F)F)c1)C(=O)N[C@@H](C)c1ccc(C(=O)O)cc1 [Example 74, 4-((S)-1-((R)-2-((2-(difluoromethoxy)pyridin-4-yl)methoxy)-3-methylbutanamido)ethyl)benzoic acid] | 0.447
CC(C)[C@@H](OCc1ccc(C(F)F)nc1)C(=O)NC1(c2ccc(C(=O)O)cc2)CC1 [Example 84, (R)-4-(1-(2-((6-(difluoromethyl)pyridin-3-yl)methoxy)-3-methylbutanamido)cyclopropyl)benzoic acid] | 11.2
C[C@H](NC(=O)C(OCc1ccc(C(F)(F)F)cc1)C1CCC1)c1ccc(C(=O)O)cc1 (single isomer, unassigned) [Example 94] | 5.01
CC(C)[C@@H](OCc1cccc(C2CC2)c1)C(=O)NC1(c2ccc(C(=O)O)cc2)CC1 [Example 65, (R)-4-(1-(2-((3-cyclopropylbenzyl)oxy)-3-methylbutanamido)cyclopropyl)benzoic acid] | > 209
CC(C)[C@@H](OCc1ccc(F)c(F)c1)C(=O)NC1(c2ccc(-c3nnn[nH]3)cc2)CC1 [Example 71, (R)—N-(1-(4-(1H-tetrazol-5-yl)phenyl)cyclopropyl)-2-((3,4-difluorobenzyl)oxy)-3-methylbutanamide] | 0.372
CC(C)[C@@H](OCc1ccc(C(F)(F)F)cn1)C(=O)NC1(c2ccc(C(=O)O)cc2)CC1 [Example 75, (R)-4-(1-(3-methyl-2-((5-(trifluoromethyl)pyridin-2-yl)methoxy)butanamido)cyclopropyl)benzoic acid] | 69.2
CC(C)[C@@H](OCc1cccc(Cl)c1)C(=O)NC1(c2ccc(C(=O)O)cc2)CC1 [Example 50, (R)-4-(1-(2-((3-chlorobenzyl)oxy)-3-methylbutanamido)cyclopropyl)benzoic acid] | > 12900
CC(C)[C@@H](OCc1ccc(C(F)(F)F)cc1)C(=O)N[C@@H](C)c1ccc(C(=O)O)cc1 [Example 1, 4-((S)-1-((R)-3-methyl-2-((4-(trifluoromethyl)benzyl)oxy)butanamido)ethyl)benzoic acid] | 0.776
CC(C)[C@@H](OCc1ccc(F)c(OC(F)F)c1)C(=O)NC1(c2ccc(C(=O)O)cc2)CC1 [Example 57, (R)-4-(1-(2-((3-(difluoromethoxy)-4-fluorobenzyl)oxy)-3-methylbutanamido)cyclopropyl)benzoic acid] | 0.372
CC(C)[C@@H](OCc1ccc(C(F)(F)F)cc1)C(=O)N[C@@H](C)c1ccc(-c2nnn[nH]2)cc1 [Example 43, (R)—N—((S)-1-(4-(1H-tetrazol-5-yl)phenyl)ethyl)-3-methyl-2-((4-(trifluoromethyl)benzyl)oxy)butanamide] | 0.501
COCc1cccc(CO[C@@H](C(=O)NC2(c3ccc(C(=O)O)cc3)CC2)C(C)C)c1 [Example 60, (R)-4-(1-(2-((3-(methoxymethyl)benzyl)oxy)-3-methylbutanamido)cyclopropyl)benzoic acid] | 1.91
CC(C)[C@@H](OCc1ccc(C2CC2)cc1)C(=O)N[C@@H](C)c1ccc(C(=O)O)cc1 [Example 30, 4-((S)-1-((R)-2-((4-cyclopropylbenzyl)oxy)-3-methylbutanamido)ethyl)benzoic acid] | 5.37

Second part, the molecule after the results:

Ki [nM] | SMILES
7.41 | CC(C)[C@@H](OCc1ccc(F)c(S(C)(=O)=O)c1)C(=O)N[C@@H](C)c1ccc(C(=O)O)cc1 [Example 35, 4-((S)-1-((R)-2-((4-fluoro-3-(methylsulfonyl)benzyl)oxy)-3-methylbutanamido)ethyl)benzoic acid]
> 195 | CC(C)[C@H](OCc1ccc(F)cc1)C(=O)N[C@@H](C)c1ccc(C(=O)O)cc1 [Example 4, 4-((S)-1-((S)-2-((4-fluorobenzyl)oxy)-3-methylbutanamido)ethyl)benzoic acid]
> 67.6 | COc1cccc(COC(C(=O)N[C@@H](C)c2ccc(C(=O)O)cc2)C(C)C)c1 (mixture of isomers) [Example 3, 4-((1S)-1-(2-((3-methoxybenzyl)oxy)-3-methylbutanamido)ethyl)benzoic acid]
0.813 | CC(C)[C@@H](OCc1cccc(Cl)c1)C(=O)N[C@@H](C)c1ccc(C(=O)O)cc1 [Example 12, 4-((S)-1-((R)-2-((3-chlorobenzyl)oxy)-3-methylbutanamido)ethyl)benzoic acid]
> 195 | CC(C)[C@H](OCc1cccc(S(C)(=O)=O)c1)C(=O)N[C@@H](C)c1ccc(C(=O)O)cc1 [Example 7, 4-((S)-1-((S)-3-methyl-2-((3-(methylsulfonyl)benzyl)oxy)butanamido)ethyl)benzoic acid]
0.288 | CC(C)[C@@H](OCc1cccc(C(F)(F)F)c1)C(=O)N[C@@H](C)c1ccc(C(=O)O)cc1 [Example 15, 4-((S)-1-((R)-3-methyl-2-((3-(trifluoromethyl)benzyl)oxy)butanamido)ethyl)benzoic acid]
10 | CC(C)[C@@H](OCc1cccc(CO)c1)C(=O)N[C@@H](C)c1ccc(C(=O)O)cc1 [Example 45, 4-((S)-1-((R)-2-((3-(hydroxymethyl)benzyl)oxy)-3-methylbutanamido)ethyl)benzoic acid]
0.302 | CC(C)[C@@H](OCc1cccc(OC(F)F)c1)C(=O)N[C@@H](C)c1ccc(C(=O)O)cc1 [Example 24, 4-((S)-1-((R)-2-((3-(difluoromethoxy)benzyl)oxy)-3-methylbutanamido)ethyl)benzoic acid]
12.9 | CC(C)[C@@H](OCc1ccccc1)C(=O)N[C@@H](C)c1ccc(C(=O)O)cc1 [Example 19, 4-((S)-1-((R)-2-(benzyloxy)-3-methylbutanamido)ethyl)benzoic acid]
1.91 | CC(C)[C@@H](OCc1ccc(F)c(F)c1)C(=O)N[C@@H](C)c1ccc(C(=O)O)cc1 [Example 27, 4-((S)-1-((R)-2-((3,4-difluorobenzyl)oxy)-3-methylbutanamido)ethyl)benzoic acid]
0.224 | CC(C)[C@@H](OCc1ccc(F)c(OC(F)F)c1)C(=O)N[C@@H](C)c1ccc(C(=O)O)cc1 [Example 32, 4-((S)-1-((R)-2-((3-(difluoromethoxy)-4-fluorobenzyl)oxy)-3-methylbutanamido)ethyl)benzoic acid]
0.055 | CC(C)[C@@H](OCc1ccc(F)c(C2CC2)c1)C(=O)N[C@@H](C)c1ccc(C(=O)O)cc1 [Example 85, 4-((S)-1-((R)-2-((3-cyclopropyl-4-fluorobenzyl)oxy)-3-methylbutanamido)ethyl)benzoic acid]
457 | CC(C)C(OCc1cccc(F)c1)C(=O)N[C@@H](C)c1ccc(C(=O)O)cc1 (single isomer, unassigned) [Example 18]
